According to ChEMBL document CHEMBL3217499, “Membrane disrupting antimicrobial peptide dendrimers with multiple amino termini” (Medchemcomm, 2012):
Converted amounts (≈) assume the structure as drawn. The source made the active and inactive calls. The rule behind the calls is not given here. Where a SMILES comes first, the peptide text is derived from it. Bridges are numbered along the chain shown (N, C = ends). Roman numbers before positions name the chains, in order. Side-chain parts run from the residue outwards. [ ]: non-standard residue; d: D form. The star is where a group is joined. LeuLys(Leu) = CC(C)C[C@H](N)C(=O)NCCCC[C@H](NC(=O)[C@@H](N)CC(C)C)C(=O)*; X2 = CC[C@H](C)[C@H](N)C(=O)NCCCC[C@H](NC(=O)[C@@H](N)[C@@H](C)CC)C(=O)*; X1 = CC(C)C[C@H](N)C(=O)NC[C@H](NC(=O)[C@@H](N)CC(C)C)C(=O)*; Dap = NC[C@H](N)C(=O)O

Tests used:
Enterococcus faecalis [1] = assay: Antibacterial activity against Enterococcus faecalis Van BE80-8 by broth microdilution assay; format: functional
[2] = test system: Staphylococcus epidermidis; assay: Antibacterial activity against Staphylococcus epidermidis ATCC 14990 by broth microdilution assay; format: functional
Pseudomonas aeruginosa [3] = assay: Antibacterial activity against Pseudomonas aeruginosa PAO1 HS by broth microdilution assay; format: functional
Escherichia coli [4] = assay: Antibacterial activity against Escherichia coli HB101 (PAT 266) by broth microdilution assay; format: functional
Lipid bilayer = assay: Induction of membrane disruption in synthetic unilamellar vesicles assembled from Escherichia coli lipids at 25 ug/ml after 16 hrs by negative-stain transmission electron microscopic analysis; format: functional
Pseudomonas aeruginosa [5] = assay: Antibacterial activity against Pseudomonas aeruginosa 8S/H by broth microdilution assay; format: functional
Enterococcus faecalis [6] = assay: Antibacterial activity against Enterococcus faecalis ATCC 29212 by broth microdilution assay; format: functional
Staphylococcus aureus [7] = assay: Antibacterial activity against methicillin-resistant Staphylococcus aureus 42080 by broth microdilution assay; format: functional
[8] = Hemolytic activity in human RBC after 4 hrs; format: ADME, cell-based; conditions: erythrocyte
Enterococcus faecium [9] = assay: Antibacterial activity against Enterococcus faecium Van BE38-10 by broth microdilution assay; format: functional
Pseudomonas aeruginosa [10] = assay: Antibacterial activity against Pseudomonas aeruginosa K799/WT by broth microdilution assay; format: functional
Bacillus subtilis = assay: Antibacterial activity against Bacillus subtilis BR151 after 18 to 24 hrs by broth microdilution assay; format: functional
Escherichia coli [11] = assay: Antibacterial activity against Escherichia coli DH5[alpha] after 18 to 24 hrs by broth microdilution assay; format: functional
Staphylococcus aureus [12] = assay: Antibacterial activity against Staphylococcus aureus ATCC 25923 by broth microdilution assay; format: functional
Pseudomonas aeruginosa [13] = assay: Antibacterial activity against Pseudomonas aeruginosa ATCC 27853 by broth microdilution assay; format: functional
Pseudomonas aeruginosa [14] = assay: Antibacterial activity against Pseudomonas aeruginosa K799/61 by broth microdilution assay; format: functional
Staphylococcus aureus [15] = assay: Antibacterial activity against Staphylococcus aureus 887 by broth microdilution assay; format: functional
Enterococcus faecium [16] = assay: Antibacterial activity against Enterococcus faecium ATCC 19434 by broth microdilution assay; format: functional
Pseudomonas aeruginosa [17] = assay: Antibacterial activity against Pseudomonas aeruginosa PAO1 after 18 to 24 hrs by broth microdilution assay; format: functional
[18] = test system: Staphylococcus epidermidis; assay: Antibacterial activity against Staphylococcus epidermidis J147 by broth microdilution assay; format: functional
Staphylococcus aureus [19] = assay: Antibacterial activity against Staphylococcus aureus ATCC 29213 by broth microdilution assay; format: functional
Escherichia coli [20] = assay: Antibacterial activity against Escherichia coli ATCC 25922 by broth microdilution assay; format: functional
Escherichia coli [21] = assay: Antibacterial activity against Escherichia coli DC2 by broth microdilution assay; format: functional

SMILES	MIC (Enterococcus faecalis [1]) [µg/mL]	MIC [2] [µg/mL]	MIC (Pseudomonas aeruginosa [3]) [µg/mL]	MIC (Escherichia coli [4]) [µg/mL]	MIC (Pseudomonas aeruginosa [5]) [µg/mL]	MIC (Enterococcus faecalis [6]) [µg/mL]	MIC (Staphylococcus aureus [7]) [µg/mL]	MHC [8] [µg/mL]	MIC (Enterococcus faecium [9]) [µg/mL]	MIC (Pseudomonas aeruginosa [10]) [µg/mL]	MIC (Bacillus subtilis) [µg/mL]	MIC (Escherichia coli [11]) [µg/mL]	MIC (Staphylococcus aureus [12]) [µg/mL]	MIC (Pseudomonas aeruginosa [13]) [µg/mL]	MIC (Pseudomonas aeruginosa [14]) [µg/mL]	MIC (Staphylococcus aureus [15]) [µg/mL]	MIC (Enterococcus faecium [16]) [µg/mL]	MIC (Pseudomonas aeruginosa [17]) [µg/mL]	MIC (Staphylococcus aureus [19]) [µg/mL]	MIC (Escherichia coli [20]) [µg/mL]	further results
CC(C)C[C@H](NC(=O)[C@H](CCCCNC(=O)[C@@H](N)CC(C)C)NC(=O)[C@@H](N)CC(C)C)C(=O)NCCCC[C@H](NC(=O)[C@H](CC(C)C)NC(=O)[C@H](CCCCNC(=O)[C@@H](N)CC(C)C)NC(=O)[C@@H](N)CC(C)C)C(=O)N[C@@H](Cc1ccccc1)C(=O)NCCCC[C@H](NC(=O)[C@H](Cc1ccccc1)NC(=O)[C@H](CCCCNC(=O)[C@H](CC(C)C)NC(=O)[C@H](CCCCNC(=O)[C@@H](N)CC(C)C)NC(=O)[C@@H](N)CC(C)C)NC(=O)[C@H](CC(C)C)NC(=O)[C@H](CCCCNC(=O)[C@@H](N)CC(C)C)NC(=O)[C@@H](N)CC(C)C)C(=O)N[C@@H](CCCCN)C(N)=O	> 32	32 (≈ 11.9 µM)	> 32	32 (≈ 11.9 µM)	> 32	> 32	> 32	310	32 (≈ 11.9 µM)	> 32	2 (≈ 0.742 µM)	21 (≈ 7.79 µM)	24 (≈ 8.91 µM)	> 32	> 32	12 (≈ 4.45 µM)	≥ 32	> 72	> 32	> 32	Activity (Lipid bilayer): Active; MIC [18]: 24 µg/mL (≈ 8.91 µM); MIC (Escherichia coli [21]): > 32 µg/mL
CC[C@H](C)[C@H](N)C(=O)NCCCC[C@H](NC(=O)[C@@H](N)[C@@H](C)CC)C(=O)N[C@H](C(=O)NCCCC[C@H](NC(=O)[C@@H](NC(=O)[C@H](CCCCNC(=O)[C@@H](N)[C@@H](C)CC)NC(=O)[C@@H](N)[C@@H](C)CC)[C@@H](C)CC)C(=O)N[C@@H](Cc1ccccc1)C(=O)NCCCC[C@H](NC(=O)[C@H](Cc1ccccc1)NC(=O)[C@H](CCCCNC(=O)[C@@H](NC(=O)[C@H](CCCCNC(=O)[C@@H](N)[C@@H](C)CC)NC(=O)[C@@H](N)[C@@H](C)CC)[C@@H](C)CC)NC(=O)[C@@H](NC(=O)[C@H](CCCCNC(=O)[C@@H](N)[C@@H](C)CC)NC(=O)[C@@H](N)[C@@H](C)CC)[C@@H](C)CC)C(=O)N[C@@H](CCCCN)C(N)=O)[C@@H](C)CC (I: H-IK(Ile)IK([Ile-X2])FKK-NH2 / II: H-IK(Ile)IK([Ile-X2])F; amide I:6-II:C)	> 32	32 (≈ 11.9 µM)	> 32	> 32	> 32	> 32	> 32	20	8 (≈ 2.97 µM)	> 32	4.4 (≈ 1.63 µM)	79 (≈ 29.3 µM)	> 32	> 32	> 32	16 (≈ 5.94 µM)	24 (≈ 8.91 µM)	> 100	> 32	> 32	MIC [18]: > 32 µg/mL; MIC (Escherichia coli [21]): > 32 µg/mL
CC(C)C[C@H](N)C(=O)NCCCC[C@H](NC(=O)[C@@H](N)CC(C)C)C(=O)N[C@@H](CCC(N)=O)C(=O)NCCCC[C@H](NC(=O)[C@H](CCC(N)=O)NC(=O)[C@H](CCCCNC(=O)[C@@H](N)CC(C)C)NC(=O)[C@@H](N)CC(C)C)C(=O)N[C@@H](Cc1ccccc1)C(=O)NCCCC[C@H](NC(=O)[C@H](Cc1ccccc1)NC(=O)[C@H](CCCCNC(=O)[C@H](CCC(N)=O)NC(=O)[C@H](CCCCNC(=O)[C@@H](N)CC(C)C)NC(=O)[C@@H](N)CC(C)C)NC(=O)[C@H](CCC(N)=O)NC(=O)[C@H](CCCCNC(=O)[C@@H](N)CC(C)C)NC(=O)[C@@H](N)CC(C)C)C(=O)N[C@@H](CCCCN)C(N)=O (I: H-LK(Leu)QK([Gln-LeuLys(Leu)])FKK-NH2 / II: H-LK(Leu)QK([Gln-LeuLys(Leu)])F; amide I:6-II:C)	> 32		> 32		> 32	> 32	> 32	250		> 32	> 100	> 100		> 32	> 32			> 100	> 32	> 32	
CC(C)C[C@H](N)C(=O)NC[C@H](NC(=O)[C@@H](N)CC(C)C)C(=O)N[C@@H](Cc1ccccc1)C(=O)NC[C@H](NC(=O)[C@H](Cc1ccccc1)NC(=O)[C@H](CNC(=O)[C@@H](N)CC(C)C)NC(=O)[C@@H](N)CC(C)C)C(=O)N1CCC[C@H]1C(=O)NC[C@H](NC(=O)[C@@H]1CCCN1C(=O)[C@H](CNC(=O)[C@H](Cc1ccccc1)NC(=O)[C@H](CNC(=O)[C@@H](N)CC(C)C)NC(=O)[C@@H](N)CC(C)C)NC(=O)[C@H](Cc1ccccc1)NC(=O)[C@H](CNC(=O)[C@@H](N)CC(C)C)NC(=O)[C@@H](N)CC(C)C)C(=O)N[C@@H](CCCCN)C(N)=O (I: H-L[Dap](Leu)F[Dap]([Phe-X1])P[Dap]K-NH2 / II: H-L[Dap](Leu)F[Dap]([Phe-X1])P; amide I:6-II:C)	> 32		> 32		> 32	> 32	> 32	> 2000		> 32	3.1 (≈ 1.27 µM)	15 (≈ 6.16 µM)		> 32	> 32			20 (≈ 8.21 µM)	> 32	> 32	
CC(C)C[C@H](NC(=O)[C@H](CNC(=O)[C@@H](N)CC(C)C)NC(=O)[C@@H](N)CC(C)C)C(=O)NC[C@H](NC(=O)[C@H](CC(C)C)NC(=O)[C@H](CNC(=O)[C@@H](N)CC(C)C)NC(=O)[C@@H](N)CC(C)C)C(=O)N[C@@H](Cc1ccccc1)C(=O)NC[C@H](NC(=O)[C@H](Cc1ccccc1)NC(=O)[C@H](CNC(=O)[C@H](CC(C)C)NC(=O)[C@H](CNC(=O)[C@@H](N)CC(C)C)NC(=O)[C@@H](N)CC(C)C)NC(=O)[C@H](CC(C)C)NC(=O)[C@H](CNC(=O)[C@@H](N)CC(C)C)NC(=O)[C@@H](N)CC(C)C)C(=O)N[C@@H](CCCCN)C(N)=O (I: H-L[Dap](Leu)L[Dap]([Leu-X1])F[Dap]K-NH2 / II: H-L[Dap](Leu)L[Dap]([Leu-X1])F; amide I:6-II:C)	> 32	24 (≈ 10 µM)	> 32	32 (≈ 13.3 µM)	> 32	> 32	> 32	> 2000	> 32	> 32	2.9 (≈ 1.21 µM)	3.9 (≈ 1.62 µM)	≥ 32	> 32	> 32	32 (≈ 13.3 µM)	> 32	18 (≈ 7.5 µM)	> 32	> 32	MIC [18]: 24 µg/mL (≈ 10 µM); MIC (Escherichia coli [21]): 32 µg/mL (≈ 13.3 µM)
CC1(C)S[C@@H]2[C@H](NC(=O)[C@H](N)c3ccccc3)C(=O)N2[C@H]1C(=O)O [AMPICILLIN]		1 (≈ 2.86 µM)		> 32					> 32				0.13 (≈ 0.372 µM)			> 32	4 (≈ 11.4 µM)				MIC [18]: 1.5 µg/mL (≈ 4.29 µM); MIC (Escherichia coli [21]): 1 µg/mL (≈ 2.86 µM)
